These are literature values, as cited in patent US10463641B2, “Method for using small molecule compounds to induce human tumor cells to be directly reprogrammed into non-oncogenic cells” (Transcend Cytotherapy Co., Ltd, priority 2015, dated 2019).

Data set [1] deals with GSK-3β (Homo sapiens, UniProt P49841). Particulars: vs CDC2, ERK2 and other kinases.
Data set [2] relates to AMPK, ALK5, KDR (VEGFR-2) and PDGFR.
The target in data set [3] is ALK2 (Homo sapiens, UniProt Q04771). Particulars: DMH1.
Chain of ALK2 (Q04771 21-509): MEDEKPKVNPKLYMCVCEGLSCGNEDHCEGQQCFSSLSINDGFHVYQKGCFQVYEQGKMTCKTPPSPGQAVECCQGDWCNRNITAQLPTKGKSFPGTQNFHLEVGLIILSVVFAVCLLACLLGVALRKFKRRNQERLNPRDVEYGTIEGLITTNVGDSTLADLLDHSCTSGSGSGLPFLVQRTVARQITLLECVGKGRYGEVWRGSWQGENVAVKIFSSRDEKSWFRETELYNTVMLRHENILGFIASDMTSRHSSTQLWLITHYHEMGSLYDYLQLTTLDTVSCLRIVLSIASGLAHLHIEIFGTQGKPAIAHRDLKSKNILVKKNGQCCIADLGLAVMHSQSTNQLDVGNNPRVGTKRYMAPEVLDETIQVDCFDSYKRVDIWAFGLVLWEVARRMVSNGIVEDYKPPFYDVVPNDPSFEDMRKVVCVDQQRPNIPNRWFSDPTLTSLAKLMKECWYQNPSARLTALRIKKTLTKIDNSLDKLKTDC
In data set [4] the test system is TGF-β type II receptor and activin type II receptor.
Data set [5] has as its target T1, BMP type II receptor (Homo sapiens, UniProt Q13873).
T1 sequence (Q13873 27-1038): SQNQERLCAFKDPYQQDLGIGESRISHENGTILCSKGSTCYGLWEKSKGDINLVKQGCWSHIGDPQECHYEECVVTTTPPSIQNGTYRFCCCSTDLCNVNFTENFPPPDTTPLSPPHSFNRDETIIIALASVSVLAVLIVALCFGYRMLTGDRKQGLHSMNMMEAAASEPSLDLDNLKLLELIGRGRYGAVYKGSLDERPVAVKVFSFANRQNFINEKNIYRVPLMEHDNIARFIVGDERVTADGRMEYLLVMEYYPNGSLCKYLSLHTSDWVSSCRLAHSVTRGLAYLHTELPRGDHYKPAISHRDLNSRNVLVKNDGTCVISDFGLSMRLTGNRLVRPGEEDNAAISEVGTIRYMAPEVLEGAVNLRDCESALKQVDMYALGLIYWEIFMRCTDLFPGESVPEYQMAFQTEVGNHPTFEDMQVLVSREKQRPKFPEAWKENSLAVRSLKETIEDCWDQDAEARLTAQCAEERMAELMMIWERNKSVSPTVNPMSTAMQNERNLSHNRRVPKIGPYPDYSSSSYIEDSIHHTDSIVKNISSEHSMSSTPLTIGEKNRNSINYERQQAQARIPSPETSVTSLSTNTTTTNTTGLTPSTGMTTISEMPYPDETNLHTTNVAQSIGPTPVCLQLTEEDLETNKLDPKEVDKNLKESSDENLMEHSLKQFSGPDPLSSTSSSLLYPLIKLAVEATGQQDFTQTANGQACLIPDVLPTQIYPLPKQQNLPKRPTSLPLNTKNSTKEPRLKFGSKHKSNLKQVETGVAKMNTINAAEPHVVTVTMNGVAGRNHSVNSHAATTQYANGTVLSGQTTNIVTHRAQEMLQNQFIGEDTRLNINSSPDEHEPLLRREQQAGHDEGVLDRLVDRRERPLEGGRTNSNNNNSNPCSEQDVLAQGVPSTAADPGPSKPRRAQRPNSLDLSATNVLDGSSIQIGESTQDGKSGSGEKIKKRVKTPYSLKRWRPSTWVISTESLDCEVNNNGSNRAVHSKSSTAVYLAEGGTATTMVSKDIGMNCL

The target of data set [6] is BMP type I receptor ALK3. Conditions: C2C12 cells; read-out: IC50, transcription activity of BMP type I receptor ALK3.
The test system of data set [7] is BMP type I receptor ALK2.
For data set [8], the system named is and ActRIIa.
Data set [9] addresses ALK6 (Homo sapiens, UniProt O00238).
Data set [10] addresses ALK1 (Homo sapiens, UniProt P37023).
Data set [11] has as its target T2, ALK7 (Homo sapiens, UniProt Q8NER5).
T2 sequence (Q8NER5 21-493): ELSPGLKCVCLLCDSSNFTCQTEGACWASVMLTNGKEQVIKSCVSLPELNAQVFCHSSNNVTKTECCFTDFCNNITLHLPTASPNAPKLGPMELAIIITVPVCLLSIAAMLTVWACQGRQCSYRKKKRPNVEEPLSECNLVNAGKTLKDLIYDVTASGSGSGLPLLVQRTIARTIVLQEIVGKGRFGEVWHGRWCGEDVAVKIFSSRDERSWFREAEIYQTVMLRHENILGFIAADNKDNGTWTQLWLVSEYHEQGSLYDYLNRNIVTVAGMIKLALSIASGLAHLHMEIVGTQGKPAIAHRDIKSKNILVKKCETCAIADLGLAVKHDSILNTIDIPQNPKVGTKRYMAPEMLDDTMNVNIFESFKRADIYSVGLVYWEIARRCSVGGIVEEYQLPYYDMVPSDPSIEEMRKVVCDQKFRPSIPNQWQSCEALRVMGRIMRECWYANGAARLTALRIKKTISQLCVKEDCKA
Conditions: qualitative.

Data set [12] relates to ALK1, 2, 3 or 6.
The test system of data set [13] is ALK2, 3 and 6.
Data set [14] concerns the target T3, ALK4 (Homo sapiens, UniProt P36896).
T3 sequence (P36896 24-505): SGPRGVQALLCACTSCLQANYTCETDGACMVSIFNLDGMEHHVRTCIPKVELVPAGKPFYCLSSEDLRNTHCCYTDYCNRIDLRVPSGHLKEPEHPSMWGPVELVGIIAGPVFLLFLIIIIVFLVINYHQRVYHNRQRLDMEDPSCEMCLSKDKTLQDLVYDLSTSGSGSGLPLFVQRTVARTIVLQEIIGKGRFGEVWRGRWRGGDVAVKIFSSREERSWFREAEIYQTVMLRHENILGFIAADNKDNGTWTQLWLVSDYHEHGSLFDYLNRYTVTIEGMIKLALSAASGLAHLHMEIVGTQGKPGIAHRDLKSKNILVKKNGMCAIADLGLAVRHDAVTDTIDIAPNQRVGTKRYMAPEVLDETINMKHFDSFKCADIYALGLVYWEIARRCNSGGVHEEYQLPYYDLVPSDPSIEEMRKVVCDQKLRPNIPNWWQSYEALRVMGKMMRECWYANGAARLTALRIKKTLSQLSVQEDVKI
Conditions: ALK4 vs ALK5.

Data set [15] deals with ALK5 (Homo sapiens, UniProt P36897). Conditions: vs TGF-βRII.
Chain of ALK5 (P36897 34-503, species assumed): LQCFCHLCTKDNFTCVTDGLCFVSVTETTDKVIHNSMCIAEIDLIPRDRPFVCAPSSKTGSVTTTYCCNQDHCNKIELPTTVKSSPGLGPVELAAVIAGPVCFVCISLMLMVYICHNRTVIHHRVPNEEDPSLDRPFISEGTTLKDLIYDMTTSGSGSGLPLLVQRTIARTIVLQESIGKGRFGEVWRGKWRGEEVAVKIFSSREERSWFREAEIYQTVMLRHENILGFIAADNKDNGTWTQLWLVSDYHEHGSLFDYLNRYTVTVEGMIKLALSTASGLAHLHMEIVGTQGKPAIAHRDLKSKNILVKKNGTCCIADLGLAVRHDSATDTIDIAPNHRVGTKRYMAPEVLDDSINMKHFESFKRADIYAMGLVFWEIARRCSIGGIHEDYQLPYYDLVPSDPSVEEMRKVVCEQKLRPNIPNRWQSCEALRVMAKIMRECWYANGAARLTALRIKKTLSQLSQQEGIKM

Chain of ALK6 (O00238 14-502): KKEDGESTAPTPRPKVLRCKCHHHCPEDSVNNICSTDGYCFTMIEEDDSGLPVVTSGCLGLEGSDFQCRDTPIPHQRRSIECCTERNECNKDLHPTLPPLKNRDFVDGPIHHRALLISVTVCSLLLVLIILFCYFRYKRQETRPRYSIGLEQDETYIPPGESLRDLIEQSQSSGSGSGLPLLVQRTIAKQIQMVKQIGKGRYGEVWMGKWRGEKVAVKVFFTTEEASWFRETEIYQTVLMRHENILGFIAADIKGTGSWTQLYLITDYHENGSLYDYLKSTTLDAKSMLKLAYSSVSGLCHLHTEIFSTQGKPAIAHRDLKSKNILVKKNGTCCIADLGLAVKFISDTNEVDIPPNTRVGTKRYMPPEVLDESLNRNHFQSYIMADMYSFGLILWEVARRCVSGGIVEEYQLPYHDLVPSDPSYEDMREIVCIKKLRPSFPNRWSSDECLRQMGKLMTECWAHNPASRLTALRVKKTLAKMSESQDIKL
Chain of ALK1 (P37023 22-503, species assumed): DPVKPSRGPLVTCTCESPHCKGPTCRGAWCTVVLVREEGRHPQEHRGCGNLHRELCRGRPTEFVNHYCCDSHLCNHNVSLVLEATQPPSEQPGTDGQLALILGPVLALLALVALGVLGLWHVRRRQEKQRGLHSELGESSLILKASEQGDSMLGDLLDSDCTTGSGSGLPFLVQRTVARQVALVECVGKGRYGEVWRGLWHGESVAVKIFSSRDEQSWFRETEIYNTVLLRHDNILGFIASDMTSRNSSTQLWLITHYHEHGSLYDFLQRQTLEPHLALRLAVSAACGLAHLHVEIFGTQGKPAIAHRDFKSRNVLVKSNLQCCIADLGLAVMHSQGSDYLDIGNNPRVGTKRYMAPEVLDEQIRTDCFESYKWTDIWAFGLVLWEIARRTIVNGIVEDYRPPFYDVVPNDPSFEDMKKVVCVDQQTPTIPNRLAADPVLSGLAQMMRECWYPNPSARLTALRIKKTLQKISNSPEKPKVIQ
Chain of GSK-3β (P49841 whole entry): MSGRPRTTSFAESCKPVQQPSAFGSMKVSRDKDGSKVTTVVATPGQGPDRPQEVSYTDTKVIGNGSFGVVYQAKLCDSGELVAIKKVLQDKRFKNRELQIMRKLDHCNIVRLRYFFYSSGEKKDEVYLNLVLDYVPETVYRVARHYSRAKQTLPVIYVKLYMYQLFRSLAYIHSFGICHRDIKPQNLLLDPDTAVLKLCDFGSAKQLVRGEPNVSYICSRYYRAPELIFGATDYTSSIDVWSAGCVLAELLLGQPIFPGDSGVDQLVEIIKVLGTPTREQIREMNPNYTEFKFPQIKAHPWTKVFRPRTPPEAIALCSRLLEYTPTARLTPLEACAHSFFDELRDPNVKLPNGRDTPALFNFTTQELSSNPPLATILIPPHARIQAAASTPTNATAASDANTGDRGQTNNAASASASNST

For `Cc1cnc(-c2cnc(NCCNc3ccc(C#N)cn3)nc2-c2ccc(Cl)cc2Cl)[nH]1` [CHIR-99021], the “inhibition of GSK-3 stronger than inhibition on CDC2, ERK2 and other kinases” value in [1] is listed as 500 fold.

In the case of `CC(C)Oc1ccc(-c2cnc3c(-c4ccnc5ccccc45)cnn3c2)cc1` [DMH1], the “inhibiting activity on AMPK, ALK5, KDR (VEGFR-2) and PDGFR” value in [2] was “no inhibiting activity”. The 50% inhibitory concentration (IC50) (usually the concentration needed to halve the response being measured) in data set [3] is 108 nM.

For `O=C(NC1CCOCC1)c1ccc(-c2cc(-c3c[nH]nc3-c3ccccn3)ccn2)cc1` [GW788388], the “inhibition of TGF-β type II receptor and activin type II receptor” value in [4] is given as “also inhibiting”. Further, the “inhibition of BMP type II receptor” value in data set [5] was “not BMP type II receptor”.

On to `c1ccc2c(-c3cnn4cc(-c5ccc(N6CCNCC6)cc5)cnc34)ccnc2c1` [LDN-193189], for which the half-maximal inhibitory concentration (IC50) was 30 nM in [6] and 5 nM in data set [7] (C2C12 cells, read-out: IC50, transcription activity of BMP type I receptor ALK2). For the same compound, the “selectivity on BMP higher than on TGF-β” value in data set [7] (BMP vs TGF-β) is given as 200 fold.

As for `COc1cc(-c2cc(-c3cccc(O)c3)cnc2N)cc(OC)c1OC` [Medium K02288], in [8], the “inhibiting activity on other ALK5 (3, 4, 5) and ActRIIa” value is “slight inhibiting activity”. The half-maximal inhibitory concentration (IC50) was 6.4 nM in [9] and 1.8 nM in [10].

Turning to `Cc1cccc(-c2[nH]c(C(C)(C)C)nc2-c2ccc3c(c2)OCO3)n1` [SB505124], the “inhibition of ALK7” value in data set [11] is reported as “also inhibiting ALK7”. The “inhibition of ALK1, 2, 3 or 6” value in data set [12] was “not ALK1, 2, 3 or 6”.

On to `Cc1cccc(-c2[nH]c(C(C)(C)C)nc2-c2ccc3nccnc3c2)n1` [SB525334], for which the “activity to ALK2, 3 and 6” value in [13] is on record as “no activity”. For the same compound, in [14], the “effect on ALK4 lower than on ALK5” value is given as 4 fold.

On to SD-208, for which, in [15], the “selectivity for TGF-βRI (ALK5) higher than on TGF-βRII” value is given as “more than 100 fold”.
